Experimental data as given in patent publication US4001086A (priority 1976, dated 1977).

Tests used:
[1] = tested on: Cryptococcus neoformans; assay: standard agar-dilution assay (MIC); format: cell-based
From the text: Antibiotic A-30641 inhibits the growth of bacteria and fungi which are pathogenic to animal and plant life. The minimal inhibitory concentrations (MIC's) at which antibiotic A-30641 inhibited a variety of organisms, using a standard agar-dilution assay, are summarized in Table III.

[2] = tested on: C. albicans; assay: dermal C. albicans infection in rabbits, topical treatment; format: in vivo; conditions: 10 days, 1% solution in propylene glycol
From the text: Antibiotic A-30641 is particularly useful when administered topically.

How did the MIC [1] turn out when `COC1c2cc(Cl)c(O)cc2ON2C(=O)C3NC(=O)C12SS3` (centres unmarked) [antibiotic A-30641] was run?
Its MIC is > 0.156 µg/mL.

And the “lesions caused by a dermal C. albicans infection, severity and size” value [2]?
The value was “reduced in severity and size”.
